Reference: patent publication US8232243B2, “Tyrosine- and tryptophan-containing peptides as antioxidants” (Max-Planck-Gesellschaft zur Forderung der Wissenschaften …, priority 1999, dated 2012)
No end group written: not given here.

Legend:
Type in all cases: biochemical
[1] = tested on: B-phycoerythrin from Porphyrium cruentum; assay: peroxy free radical trapping test (protection of B-phycoerythrin from destruction by peroxy free radicals); conditions: B-phycoerythrin 10 nM, 2,2'-azobis-2-methylpropionamidine 500 μM, 37° C.; peptide 20 nM to 20 μM
Method: The ability of peptides to protect the globular protein B-phycoerythrin from destruction by peroxy free radicals was tested. This was done by oxidizing B-phycoerythrin from Porphyrium cruentum (10 nM) in phosphate-buffered saline solution using 2,2′-azobis-2-methylpropionamidine (500 μM) at 37° C. as source of peroxy free radicals. Destruction of the protein was measured by observing the decrease in the protein fluorescence with increasing incubation time (flash fluorimetry, excitation window 340±50 nm, emission window 572±6 nm) . The results of this experiment for the secretory peptides GnRH (human) and for the synthetic peptides WY, WGGGY, WW and YY are shown in FIG. 1A. The meanings in the individual diagrams are • the control and ⋄ a concentration of 20 nM, ∘ 200 nM, ▾ 2 μM and ∇ 20 μM of the particular peptide (quadruplicate determinations) .
The results are shown in FIG. 2. • means the control, ∘ means a concentration of 200 nM, ▾ means a concentration of 2 μM and ∇ means a concentration of 20 μM of the particular peptide (quadruplicate determinations).
Experiments were carried out to test the antioxidant effect of other substances in the peroxy free radical trapping test described in example 1. The results are shown in FIG. 3 (see FIG. 1A for explanation) .

human LDL = assay: protection of LDL from copper-catalyzed oxidation (conjugated dienes, 234 nm); conditions: LDL 0.1 mg/ml protein, 10 μM CuSO4, 37° C.; peptide 20 μM and 100 μM
Method: In a further test, the ability of the peptides to protect LDL from copper-catalyzed oxidation was tested. This was done by incubating fresh human LDL (0.1 mg/ml protein) with 10 μM CuSO4 at 37° C. The reaction products of the LDL decomposition (conjugated dienes) were measured by photometry at 234 nm as described by Moosmann and Behl (Proc. Natl. Acad. Sci. USA 96 (1999), 8867). The three curves show the control, a concentration of 20 μM and a concentration of 100 μM of the particular peptide (duplicate determinations).

[2] = tested on: native rat brain membranes; assay: protection of brain membranes from oxidative damage by ascorbate (lipid peroxidation, chemiluminescence); conditions: membranes 0.5 mg/ml protein, 50 μM ascorbate, 37° C.; peptide 20 μM and 100 μM
Method: Secretory peptides are able to protect brain membranes from oxidative damage by ascorbate. This was done by oxidizing native rat brain membranes (0.5 mg/ml protein) by adding 50 μM ascorbate at 37° C. Single-photon measurement of the chemiluminescence (as measure of peroxidation reactions occurring) was measured for quantitative determination of the lipid peroxidation as described by Moosmann and Behl (supra). The results for GnRH (human) are shown in FIG. 1C. • means the control and ⋄ a concentration of 20 μM and ▪ a concentration of 100 μM of the particular peptide (duplicate determinations).

Substance	antioxidant effect in trapping peroxy free radicals (decrease in B-phycoerythrin fluorescence) [1]	antioxidant effect in preventing LDL oxidation (human LDL)	antioxidant effect in preventing peroxidation of brain lipids [2]
cyEHWSHDWKPG-amide (N-terminal pyroglutamate, C-terminal amide; listed as Petromyzon marinus) [GnRH (lamprey)]	Analogous results	–	–
LRPG-amide (LRPG-NH2; listed as Homo sapiens) [GnRH 7-10]	complete loss of activity	–	–
cyEHWSYGWLPG-amide (HELM PEPTIDE1{[Glp].H.W.S.Y.G.W.L.P.G.[am]}$$$$V2.0; SMILES CC(C)C[C@H](NC(=O)[C@H](Cc1c[nH]c2ccccc12)NC(=O)CNC(=O)[C@H](Cc1ccc(O)cc1)NC(=O)[C@H](CO)NC(=O)[C@H](Cc1c[nH]c2ccccc12)NC(=O)[C@H](Cc1c[nH]cn1)NC(=O)[C@@H]1CCC(=O)N1)C(=O)N1CCC[C@H]1C(=O)NCC(N)=O; listed as Oncorhynchus tshawytscha) [GnRH (salmon)]	Analogous results	–	–
WGGY (A synthetic peptide which functions as an antioxidant)	Analogous results	–	–
WGY	Analogous results	–	–
SYGLRPG-amide (SYGLRPG-NH2; listed as Homo sapiens) [GnRH 4-10]	markedly reduced	–	–
cyEHWSYGLRPG-amide (N-terminal pyroglutamate, C-terminal amide; listed as Homo Sapiens) [GnRH (human)]	have antioxidant properties	have antioxidant properties	have antioxidant properties
